Test results reported in the RepoRT retention time repository (doi:10.1021/acs.analchem.2c02893).

Experiment: RP, Thermo Scientific Acclaim RSLC 120 C18, 100 × 2.1 mm, 2.2 µm, 30 °C, 0.2 mL/min, estimated dead time 1.1 min; A: 90% water + 10% methanol + 0.01% formic acid + 5 mM ammonium formate, pH 3.61; B: methanol + 0.01% formic acid + 5 mM ammonium formate, pH 3.61; gradient (min/%B) 0/1 1/1 2/39 13/99.9 15/99.9 15.1/1 20.1/1
Details: stereoisomer not certain

| Compound | LC retention time [min] |
| --- | --- |
| CCOP(=S)(Oc1cnc(C(C)(C)C)nc1)OC(C)C (stereo not given) [Tebupirimphos] | 12.3 |
| NC(=O)c1ccccc1C(=O)O [Phthalamic acid] | 2.87 |
| Cc1noc(NS(=O)(=O)c2ccc(N)cc2)c1C [Sulfisoxazole] | 4.71 |
| CN1CCN(CCCN2c3ccccc3Sc3ccc(C(F)(F)F)cc32)CC1 [Trifluoperazine] | 10.2 |
| CCOP(=S)(OCC)Oc1cnc2ccccc2n1 [Quinalphos] | 10.8 |
| Cn1c([N+](=O)[O-])cnc1COC(N)=O [Ronidazole] | 3.55 |
| CC(C)C1CCC(C(=O)NC(Cc2ccccc2)C(=O)O)CC1 (stereo not given) [Nateglinide] | 10.4 |
| NCC(CC(=O)O)c1ccc(Cl)cc1 (stereo not given) [Baclofen] | 4.27 |
| CCOc1ccccc1OS(=O)(=O)NC(=O)Nc1nc(OC)cc(OC)n1 [Ethoxysulfuron] | 9.32 |
| CC(=O)Oc1ccc(C(c2ccc(OC(C)=O)cc2)c2ccccn2)cc1 [Bisacodyl] | 8.92 |
| CCC(CC)COC(C(=O)OCCN(C)C)(c1ccccc1)c1ccccc1 [Denaverine] | 11.6 |
| c1cnc2cc3c(cc2n1)C1CNCC3C1 [Varenicline] | 3.63 |
| CC1(C)C(C=C(Cl)Cl)C1C(=O)OCc1cccc(Oc2ccccc2)c1 (stereo not given) [Permethrin] | 13.9 |
| CC(=O)OC1C(C)OC(n2cc(F)c(N)nc2=O)C1OC(C)=O (stereo not given) [Cytidine-2' 3'-di-O-acetyl-5'-deoxy-5-fluoro] | 5.06 |
| O=C(NC(=O)c1c(F)cccc1F)Nc1ccc(C(F)(F)F)cc1 [Penfluron] | 10.9 |
| CNC(C)C(=O)c1ccc(F)cc1 (stereo not given) [Methcathinone (4-F-/ 4-FMC. Flephedrone)] | 3.91 |
| COc1ccc(CC2c3cc(OC)c(OC)cc3CCN2C)cc1OC (stereo not given) [Laudanosine] | 4.71 |
| CNC(=C[N+](=O)[O-])NCCSCc1ccc(C[N+](C)(C)[O-])o1 [Ranitidine-N-oxide] | 3.43 |
| O=C(c1cccc2ccccc12)c1cn(CCCCCF)c2ccccc12 [AM-2201] | 11.2 |
| c1ccc2c(c1)CCCC2C1=NCCN1 (stereo not given) [Tetryzoline] | 4.47 |
| CNC(=O)Oc1cc(C)c(SC)c(C)c1 [Methiocarb (Mercaptodimethur)] | 9.34 |
| O=C(Nc1ccccc1)c1ccccc1I [Benodanil] | 8.02 |

| Compound | LC retention time [min] |
| --- | --- |
| CC(=O)N=c1sc(S(N)(=O)=O)nn1C [Methazolamide] | 4.28 |
| Cc1cccc(C)c1OCC(C)N (stereo not given) [Mexiletine] | 5.59 |
| CCCOC(=O)c1ccc(O)cc1 [Propylparaben] | 8.36 |
| CC1C(=O)OC2CC[N+]3([O-])CC=C(COC(=O)C(C)(O)C1(C)O)C23 (stereo not given) [Monocrotaline-N-oxide] | 3.19 |
| CC(C)CC(N(C)C)C1(c2ccc(Cl)cc2)CCC1 (stereo not given) [Sibutramine] | 8.66 |
| CCCc1cc(C(N)=S)ccn1 [Protionamide] | 6.36 |
| CN(CC1(C)CCCO1)S(=O)(=O)c1ccc(Cl)c(S(N)(=O)=O)c1 (stereo not given) [Mefruside] | 6.56 |
| CCCCNc1ccc(C(=O)OCCN(C)C)cc1 [Tetracaine] | 6.43 |
| CC(NC(=O)C(N)CC(=O)O)C(=O)NC1C(C)(C)SC1(C)C (stereo not given) [Alitame] | 6.09 |
| COP(=S)(OC)Oc1ccc([N+](=O)[O-])cc1 [Parathion-methyl] | 9.24 |
| COP(=S)(OC)SCN1C(=O)c2ccccc2C1=O [Phosmet] | 8.94 |
| CN(C)CCCN1c2ccccc2Sc2ccccc21 [Promazine] | 7.69 |
| Cc1nnc2n1-c1ccc(Br)cc1C(c1ccccn1)=NC2 [Pyrazolam] | 6.27 |
| CN1CCCCC1Cn1cc(C(=O)C23CC4CC(CC(C4)C2)C3)c2ccccc21 (stereo not given) [AM-1248] | 9.94 |
| CC(C(=O)c1ccc2c(c1)OCO2)N(C)C (stereo not given) [MDDMA-bk] | 3.78 |
| CCOC(=O)COC(=O)c1cc(Oc2ccc(C(F)(F)F)cc2Cl)ccc1[N+](=O)[O-] [Fluoroglycofen-ethyl] | 11.7 |
| COc1c(Cl)ccc(Cl)c1C(=O)O [Dicamba] | 4.97 |
| CC(Cc1ccc(O)cc1)NCC(O)c1cc(O)cc(O)c1 (stereo not given) [Fenoterol] | 3.61 |
| O=C(NC12CC3CC(CC(C3)C1)C2)c1nn(Cc2ccc(F)cc2)c2ccccc12 [FUB-AKB48] | 13 |
| CN(C)CCc1c[nH]c2ccc(CC3COC(=O)N3)cc12 (stereo not given) [Zolmitriptan] | 3.61 |
| CN1C2CCC1C(C(=O)O)C(OC(=O)c1ccccc1)C2 (stereo not given) [Benzoylecgonine] | 4.68 |
| COc1c(C)c2c(c(O)c1CC=C(C)CCC(=O)O)C(=O)OC2 [Mycophenolic acid] | 8.79 |

| Compound | LC retention time [min] |
| --- | --- |
| CNC(C)C(=O)c1ccc(Cl)cc1 (stereo not given) [Clephedrone (4-Chloromethcathinone)] | 4.91 |
| Cn1cnc2c1c(=O)n(CCCC(=O)O)c(=O)n2C [1-(3-carboxypropyl)-3,7-dimethylxanthine] | 4.48 |
| CCCCCCCCCCOc1cc2c(=O)c(C(=O)OCC)c[nH]c2cc1OCC [Decoquinate] | 13.4 |
| C#CCN1C(=O)COc2cc(F)c(N3C(=O)C4=C(CCCC4)C3=O)cc21 [Flumioxazin] | 8.73 |
| CC(C(O)c1ccccc1)N(C)C (stereo not given) [Methylephedrine] | 3.73 |
| COC(=O)C(C)Oc1ccc(Cl)cc1Cl (stereo not given) [Dichlorprop-methyl] | 10.5 |
| C=C1CC(=CC)C(=O)OC2CCN3CC=C(COC(=O)C1(C)O)C23 (stereo not given) [Seneciphylline] | 4.17 |
| Cc1c(NC(=O)c2cccnc2)c(=O)n(-c2ccccc2)n1C [Nifenazone] | 4.56 |
| CCOP(=O)(OCC)SCSCC [Phorate-oxon] | 8.6 |
| COC1(C)CC(c2ccccc2)c2c(c3ccccc3oc2=O)O1 (stereo not given) [Pyranocoumarin] | 11.1 |
| CCOP(=S)(OCC)OP(=S)(OCC)OCC [Sulfotepp] | 10.8 |
| Cc1ccn2nc(S(=O)(=O)Nc3c(F)cccc3F)nc2n1 [Flumetsulam] | 4.83 |
| CN(Cc1cnc2nc(N)nc(N)c2n1)c1ccc(C(=O)NC(CCC(=O)O)C(=O)O)cc1 (stereo not given) [Methotrexate] | 3.96 |
| NC(=O)N=C1SCCN1Cc1ccc(Cl)nc1 [Thiacloprid-amide] | 4.83 |
| CC(=O)N1CCN(c2ccc(OCC3COC(Cn4ccnc4)(c4ccc(Cl)cc4Cl)O3)cc2)CC1 (stereo not given) [Ketoconazole] | 9.4 |
| CCOP(=S)(OCC)SC1OCCOC1SP(=S)(OCC)OCC (stereo not given) [Dioxathion] | 12.1 |
| CCCSC(=O)N(CCC)CCC [Vernolate] | 11.5 |
| CC(C)N(C(=O)C(=O)O)c1ccc(F)cc1 [Flufenacet-OXA] | 5.49 |
| CC12CCC3C4CCC(=O)C=C4CCC3C1CCC2O (stereo not given) [Nandrolone] | 9.37 |
| CC1(C)OC2CC3C4CC(F)C5=CC(=O)C=CC5(C)C4C(O)CC3(C)C2(C(=O)CO)O1 (stereo not given) [Flunisolide] | 9.01 |
| Nc1ncnc2nc[nH]c12 [Adenine] | 2.43 |
